Patent US11839679B2, “Gamma-diketones for treatment and prevention of aging skin and wrinkles” (BioSplice Therapeutics, Inc., priority 2014, dated 2023)

System: fine lines, wrinkles in the outer canthus of the eyes (crow's feet area)
Assay: Panelist self-assessment questionnaire, Example 1
Format: in vivo, human
Settings: for Q2 appearance of my skin around either of my eyes, Average Score: Score 1 (Better) to 5 (Worse); for Q4 any discomfort, other than slight tingling, in the treated area during the study, Average Score: Score 1 (No) to 5 (Yes, everyday lasting more than an hour); for Q1 My wrinkles in the eye area have improved, Average Score: Score 1 (Strongly agree) to 5 (Strongly disagree); for Q3 how do you feel about the treated area surrounding your eyes and the appearance of wrinkles, Average Score: Score 1 (Very Satisfied) to 5 (Very Dissatisfied); for Q2 appearance of my skin around either of my eyes, % Responders Score 1: Score 1 = Better; for Q4 any discomfort, other than slight tingling, in the treated area during the study, % Responders Score 1: Score 1 = No; for Q1 My wrinkles in the eye area have improved, % Responders Score 1: Score 1 = Strongly agree; for Q3 how do you feel about the treated area surrounding your eyes and the appearance of wrinkles, % Responders Score 1: Score 1 = Very Satisfied; for Q1 My wrinkles in the eye area have improved, % Responders Score 2: Score 2 = Agree; for Q2 appearance of my skin around either of my eyes, % Responders Score 2: Score 2 = Little better; for Q3 how do you feel about the treated area surrounding your eyes and the appearance of wrinkles, % Responders Score 2: Score 2 = Satisfied; for Q4 any discomfort, other than slight tingling, in the treated area during the study, % Responders Score 2: Score 2 = Yes, occasional discomfort lasting less than an hour; for Q1 My wrinkles in the eye area have improved, % Responders Score 3: Score 3 = Neither agree or disagree
Method: Three groups of women were recruited to evaluate and compare the efficacy of three anti-aging test products (targeting the periorbital eye area) intended to reduce the appearance of fine lines, wrinkles in the outer canthus of the eyes (crow's feet area) over a 12 week period. Wrinkle assessment was conducted instrumentally using a Visioscan image analysis system. Effectiveness of the test product was evaluated using panelist self-assessment via questionnaire responses comprised of 3-4 questions (Q1, Q2, Q3 & Q4). Each stage in the progression of treatments was photographically documented using a High Resolution Scientifically Matched Photography technique. Image analysis was utilized to quantify changes in fine lines and crow's feet condition observed in the Scientifically Matched Photographs.
Subject Selection: • Number: Six subjects (two per group) to complete the study. • Sex: Females • Race: Caucasian/Asian/Hispanic • Age Range: 40 through 60 years old
Test samples: • Topical 0.15% of Compound #222 in Oil (a 50/50 mixture of • Propylene Glycol Dicaprylate/Dicaprate and Caprylic/Capric Triglyceride) (Cohort 1) • Topical 0.15% of Compound #222 in PEG400 (Cohort 2) • Topical 0.05% of Compound #222 in PEG400 (Cohort 3)
All subjects were instructed to use the test material once a day, as part of their daily skin care routine. Immediately following baseline evaluations, the subjects were issued the product with the following instructions:
GROUP 1—Compound #222 Topical 0.15% in oil (Cohort 1): The subjects were instructed to hold the bottle at an angle such that the roller-ball was at bottom and apply the roller-ball to the periorbital area, including the crow's feet area, 2-3 times, starting from the area under the eye (and above the cheekbone) and moving up towards the outer tip of the eye-brow. After 2-3 rolls, they were able to see wetness on the treated area. This procedure was repeated for the other eye.
GROUPS 2 & 3 Compound #222 Topical 0.15% in PEG (Cohort 2) & Compound #222 Topical 0.05% in PEG (Cohort 3): The subjects were instructed to hold the dispenser upright with one hand and with the tip of the index finger on the pump (similar to holding a spray container), pour a small amount of the product into the palm of their other hand by pumping once or twice. The product was then applied on to the periorbital area, including the crow's feet area, of both eyes with their index finger.
[…] After acclimating to ambient conditions, High Resolution Scientifically Matched Photographs were be taken and biophysical measurements (Surface Evaluation of Living Skin via Visioscan) were repeated using the standard template to identify test sites on the face. In addition (during the acclimation period) all participants were be asked to fill out a self-assessment questionnaire.
The source data was Visioscan and PhotoGrammetrix Image Analysis readings along with subjective assessments, which were totaled and reported as average scores. Photographs were placed side by side as to compare the photographs of before and after application of the test product in the eye area. Wrinkle reduction analysis source data consisted of crow's feet area quantification in relative units (px), collected at baseline and, the week 2, 4, 8 and 12 evaluations. The data obtained via Visioscan and from PhotoGrammetrix Image Analysis was quoted as % differences from baseline at each of the previously described time points. A paired t-test analysis was conducted in order to compare the results of post test product application measurements to baseline measurements where applicable. Statistical significance was established if p≤(α=0.05) was calculated.

[1] = Day 7, Topical 0.05% in PEG (Cohort 3)
[2] = Day 7, Topical 0.15% in Oil (Cohort 1)
[3] = Day 7, Topical 0.15% in PEG (Cohort 2)
[4] = Day 14, Topical 0.05% in PEG (Cohort 3)
[5] = Day 14, Topical 0.15% in Oil (Cohort 1)
[6] = Day 14, Topical 0.15% in PEG (Cohort 2)

Q4 any discomfort, other than slight tingling, in the treated area during the study, Average Score [1]: 1.00
Q4 any discomfort, other than slight tingling, in the treated area during the study, Average Score [2]: 1.50
Q4 any discomfort, other than slight tingling, in the treated area during the study, Average Score [3]: 1.50
Q4 any discomfort, other than slight tingling, in the treated area during the study, Average Score [4]: 1.00
Q4 any discomfort, other than slight tingling, in the treated area during the study, Average Score [5]: 1.50
Q4 any discomfort, other than slight tingling, in the treated area during the study, Average Score [6]: 2.50
Q4 any discomfort, other than slight tingling, in the treated area during the study, % Responders Score 1 [1]: 100%
Q4 any discomfort, other than slight tingling, in the treated area during the study, % Responders Score 1 [2]: 50%
Q4 any discomfort, other than slight tingling, in the treated area during the study, % Responders Score 1 [3]: 50%
Q4 any discomfort, other than slight tingling, in the treated area during the study, % Responders Score 1 [4]: 100%
Q4 any discomfort, other than slight tingling, in the treated area during the study, % Responders Score 1 [5]: 50%
Q4 any discomfort, other than slight tingling, in the treated area during the study, % Responders Score 1 [6]: 50%
Q4 any discomfort, other than slight tingling, in the treated area during the study, % Responders Score 2 [1]: 0%
Q4 any discomfort, other than slight tingling, in the treated area during the study, % Responders Score 2 [2]: 50%
Q4 any discomfort, other than slight tingling, in the treated area during the study, % Responders Score 2 [3]: 50%
Q4 any discomfort, other than slight tingling, in the treated area during the study, % Responders Score 2 [4]: 0%
Q4 any discomfort, other than slight tingling, in the treated area during the study, % Responders Score 2 [5]: 50%
Q4 any discomfort, other than slight tingling, in the treated area during the study, % Responders Score 2 [6]: 0%
SMILES: O=C(CCC(=O)c1ccc2c(c1)OCO2)c1ccccc1 [#222]
Q2 appearance of my skin around either of my eyes, Average Score [1]: 1.50
Q1 My wrinkles in the eye area have improved, Average Score [1]: 2.00
Q3 how do you feel about the treated area surrounding your eyes and the appearance of wrinkles, Average Score [1]: 2.00
Q2 appearance of my skin around either of my eyes, Average Score [2]: 2.50
Q1 My wrinkles in the eye area have improved, Average Score [2]: 3.50
Q3 how do you feel about the treated area surrounding your eyes and the appearance of wrinkles, Average Score [2]: 2.50
Q2 appearance of my skin around either of my eyes, Average Score [3]: 2.50
Q1 My wrinkles in the eye area have improved, Average Score [3]: 3.50
Q3 how do you feel about the treated area surrounding your eyes and the appearance of wrinkles, Average Score [3]: 2.50
Q2 appearance of my skin around either of my eyes, Average Score [4]: 1.50
Q1 My wrinkles in the eye area have improved, Average Score [4]: 1.50
Q3 how do you feel about the treated area surrounding your eyes and the appearance of wrinkles, Average Score [4]: 1.50
Q2 appearance of my skin around either of my eyes, Average Score [5]: 2.50
Q1 My wrinkles in the eye area have improved, Average Score [5]: 3.00
Q3 how do you feel about the treated area surrounding your eyes and the appearance of wrinkles, Average Score [5]: 2.00
Q2 appearance of my skin around either of my eyes, Average Score [6]: 2.50
Q1 My wrinkles in the eye area have improved, Average Score [6]: 3.00
Q3 how do you feel about the treated area surrounding your eyes and the appearance of wrinkles, Average Score [6]: 3.00
Q2 appearance of my skin around either of my eyes, % Responders Score 1 [1]: 50%
Q2 appearance of my skin around either of my eyes, % Responders Score 1 [2]: 0%
Q2 appearance of my skin around either of my eyes, % Responders Score 1 [3]: 0%
Q2 appearance of my skin around either of my eyes, % Responders Score 1 [4]: 50%
Q2 appearance of my skin around either of my eyes, % Responders Score 1 [5]: 0%
Q2 appearance of my skin around either of my eyes, % Responders Score 1 [6]: 0%
Q1 My wrinkles in the eye area have improved, % Responders Score 1 [1]: 0%
Q1 My wrinkles in the eye area have improved, % Responders Score 1 [2]: 0%
Q1 My wrinkles in the eye area have improved, % Responders Score 1 [3]: 0%
Q1 My wrinkles in the eye area have improved, % Responders Score 1 [4]: 50%
Q1 My wrinkles in the eye area have improved, % Responders Score 1 [5]: 0%
Q1 My wrinkles in the eye area have improved, % Responders Score 1 [6]: 0%
Q3 how do you feel about the treated area surrounding your eyes and the appearance of wrinkles, % Responders Score 1 [1]: 50%
Q3 how do you feel about the treated area surrounding your eyes and the appearance of wrinkles, % Responders Score 1 [2]: 0%
Q3 how do you feel about the treated area surrounding your eyes and the appearance of wrinkles, % Responders Score 1 [3]: 0%
Q3 how do you feel about the treated area surrounding your eyes and the appearance of wrinkles, % Responders Score 1 [4]: 50%
Q3 how do you feel about the treated area surrounding your eyes and the appearance of wrinkles, % Responders Score 1 [5]: 50%
Q3 how do you feel about the treated area surrounding your eyes and the appearance of wrinkles, % Responders Score 1 [6]: 0%
Q1 My wrinkles in the eye area have improved, % Responders Score 2 [1]: 100%
Q1 My wrinkles in the eye area have improved, % Responders Score 2 [2]: 50%
Q1 My wrinkles in the eye area have improved, % Responders Score 2 [3]: 0%
Q1 My wrinkles in the eye area have improved, % Responders Score 2 [4]: 50%
Q1 My wrinkles in the eye area have improved, % Responders Score 2 [5]: 50%
Q1 My wrinkles in the eye area have improved, % Responders Score 2 [6]: 50%
Q2 appearance of my skin around either of my eyes, % Responders Score 2 [1]: 50%
Q2 appearance of my skin around either of my eyes, % Responders Score 2 [2]: 50%
Q2 appearance of my skin around either of my eyes, % Responders Score 2 [3]: 50%
Q2 appearance of my skin around either of my eyes, % Responders Score 2 [4]: 50%
Q2 appearance of my skin around either of my eyes, % Responders Score 2 [5]: 50%
Q2 appearance of my skin around either of my eyes, % Responders Score 2 [6]: 50%
Q3 how do you feel about the treated area surrounding your eyes and the appearance of wrinkles, % Responders Score 2 [1]: 0%
Q3 how do you feel about the treated area surrounding your eyes and the appearance of wrinkles, % Responders Score 2 [2]: 50%
Q3 how do you feel about the treated area surrounding your eyes and the appearance of wrinkles, % Responders Score 2 [3]: 50%
Q3 how do you feel about the treated area surrounding your eyes and the appearance of wrinkles, % Responders Score 2 [4]: 50%
Q3 how do you feel about the treated area surrounding your eyes and the appearance of wrinkles, % Responders Score 2 [5]: 0%
Q3 how do you feel about the treated area surrounding your eyes and the appearance of wrinkles, % Responders Score 2 [6]: 50%
Q1 My wrinkles in the eye area have improved, % Responders Score 3 [1]: 0%
Q1 My wrinkles in the eye area have improved, % Responders Score 3 [2]: 0%
Q1 My wrinkles in the eye area have improved, % Responders Score 3 [3]: 50%
Q1 My wrinkles in the eye area have improved, % Responders Score 3 [4]: 0%
Q1 My wrinkles in the eye area have improved, % Responders Score 3 [5]: 0%
Q1 My wrinkles in the eye area have improved, % Responders Score 3 [6]: 0%
